Where two headings read alike, the source gives them in different places.
Key:
GRK5 [1] = molecular target: T1, GRK5 (Homo sapiens, UniProt P34947); test: Intact protein MS, adduct formation with GRK5; conditions: for Adduct by MS: incubation time needed to observe adduct formation with GRK5: intact mass MS; for covalent adduct formation with GRK5 (in words): intact MS
GRK5 [2] = molecular target: T1, GRK5; test: Covalent inhibition kinetic analysis
GRK5 [3] = molecular target: T1, GRK5; test: Kinome-wide selectivity panel, GRK5; conditions: read-out: inhibition of GRK5
[4] = Thermodynamic solubility, miniaturized shake-flask; type: physicochemical
[5] = Microsomal stability, HLM; type: in vitro ADME; conditions: human, human liver microsomes
PKA = PKA (Homo sapiens, UniProt P17612); test: PKA inhibition assay, ADP-Glo
bovine GRK2 = molecular target: T2, bovine GRK2 (Bos taurus, UniProt P21146); test: Radiometric GRK2 inhibition assay; type: biochemical
T2 sequence (P21146 1-689): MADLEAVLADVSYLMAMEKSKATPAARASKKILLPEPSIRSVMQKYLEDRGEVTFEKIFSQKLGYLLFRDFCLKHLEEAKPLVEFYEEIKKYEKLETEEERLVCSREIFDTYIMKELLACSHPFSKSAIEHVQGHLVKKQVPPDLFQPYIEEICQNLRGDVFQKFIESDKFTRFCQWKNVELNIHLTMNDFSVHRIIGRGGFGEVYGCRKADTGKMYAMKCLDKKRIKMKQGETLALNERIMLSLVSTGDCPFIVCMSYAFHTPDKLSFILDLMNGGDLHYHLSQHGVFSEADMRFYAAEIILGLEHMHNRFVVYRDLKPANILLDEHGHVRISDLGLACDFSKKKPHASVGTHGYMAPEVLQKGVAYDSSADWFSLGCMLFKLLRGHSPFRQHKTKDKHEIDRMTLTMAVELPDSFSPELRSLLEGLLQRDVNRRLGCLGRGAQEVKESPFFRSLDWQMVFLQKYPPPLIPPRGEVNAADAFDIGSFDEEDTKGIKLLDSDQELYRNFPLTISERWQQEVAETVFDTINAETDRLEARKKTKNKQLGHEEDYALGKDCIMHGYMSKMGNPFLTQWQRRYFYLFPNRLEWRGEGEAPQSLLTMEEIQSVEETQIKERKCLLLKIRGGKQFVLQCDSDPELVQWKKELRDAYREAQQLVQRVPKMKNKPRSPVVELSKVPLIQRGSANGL

[6] = cited from earlier work
[7] = system: rodent model of hypertrophy; conditions: cited from earlier work

T1 sequence (P34947 whole entry): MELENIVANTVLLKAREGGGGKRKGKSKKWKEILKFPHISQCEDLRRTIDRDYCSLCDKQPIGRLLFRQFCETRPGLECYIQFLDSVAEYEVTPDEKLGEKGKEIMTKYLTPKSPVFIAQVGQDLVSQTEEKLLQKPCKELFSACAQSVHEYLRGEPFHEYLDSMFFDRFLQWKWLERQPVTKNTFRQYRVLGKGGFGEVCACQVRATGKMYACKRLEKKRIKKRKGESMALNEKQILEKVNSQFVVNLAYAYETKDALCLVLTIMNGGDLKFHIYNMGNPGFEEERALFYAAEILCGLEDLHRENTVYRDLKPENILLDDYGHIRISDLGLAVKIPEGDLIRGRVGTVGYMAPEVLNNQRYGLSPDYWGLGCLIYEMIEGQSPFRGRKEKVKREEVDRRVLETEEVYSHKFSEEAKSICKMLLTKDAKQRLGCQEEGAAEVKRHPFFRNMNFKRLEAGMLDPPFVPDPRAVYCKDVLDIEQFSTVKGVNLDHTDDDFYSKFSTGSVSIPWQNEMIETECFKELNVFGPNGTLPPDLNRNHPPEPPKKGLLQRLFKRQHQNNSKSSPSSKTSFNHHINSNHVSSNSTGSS

In the case of `C=CCCNC(=O)c1c(C)[nH]c(/C=C2\C(=O)Nc3ccc(C(=O)N[C@H](C)c4ccccc4)cc32)c1C` (mixture of isomers) [Compound 5f, (R,Z)-3-((4-(but-3-en-1-ylcarbamoyl)-3,5-dimethyl-1H-pyrrol-2-yl)methylene)-2-oxo-N-(1-phenylethyl)indoline-5-carboxamide], the “Adduct by MS: incubation time needed to observe adduct formation with GRK5” value (GRK5 [1]; Table 1) is reported as greater than 30 min.

For `CC#CC(=O)Nc1c(C)[nH]c(/C=C2\C(=O)Nc3ccc(C(=O)N[C@H](C)c4ccccc4)cc32)c1C` (mixture of isomers) [Compound 9a, (R,Z)-3-((4-(but-2-ynamido)-3,5-dimethyl-1H-pyrrol-2-yl)methylene)-2-oxo-N-(1-phenylethyl)indoline-5-carboxamide], the “Adduct by MS: incubation time needed to observe adduct formation with GRK5” value (GRK5 [1]; Table 1) was greater than 180 min and the “covalent adduct formation with GRK5 (in words)” value (GRK5 [1]; 30 min incubation) was “unreactive”.

With `Cc1[nH]c(/C=C2\C(=O)Nc3ccc(C(=O)N[C@H](C)c4ccccc4)cc32)c(C)c1NC(=O)CBr` (mixture of isomers) [Compound 9g, (R,Z)-3-((4-(2-bromoacetamido)-3,5-dimethyl-1H-pyrrol-2-yl)methylene)-2-oxo-N-(1-phenylethyl)indoline-5-carboxamide] the kinact (GRK5 [2]) was greater than 0.0167 s⁻¹, the “Adduct by MS: percent adduct” value (GRK5 [1]; Table 1, 30 min incubation) was 70% 30 min and the “covalent adduct formation with GRK5 (in words)” value (GRK5 [1]; 30 min incubation) was “rapidly reacted with GRK5”. It also gave an inhibition at 0.01 µM (GRK5 [3]) of 50%.

In the case of `Cc1[nH]c(/C=C2\C(=O)Nc3ccc(C(=O)N[C@H](C)c4ccccn4)cc32)c(C)c1NC(=O)CCl` (mixture of isomers) [Compound 9l, (R,Z)-3-((4-(2-chloroacetamido)-3,5-dimethyl-1H-pyrrol-2-yl)methylene)-2-oxo-N-(1-(pyridin-2-yl)ethyl)indoline-5-carboxamide], the “solubility improvement over 9e” value [4] is reported as 3.5 fold.

With `Cc1[nH]c(/C=C2\C(=O)Nc3ccc(C(=O)N[C@H](C)c4ccc(F)cc4)cc32)c(C)c1NC(=O)CCl` (stereo in doubt) [Compound 9j, (R,Z)-3-((4-(2-chloroacetamido)-3,5-dimethyl-1H-pyrrol-2-yl)methylene)-N-(1-(4-fluorophenyl)ethyl)-2-oxoindoline-5carboxamide] the half-life [5] was 18.9 min.

In the case of `Cc1[nH]c(/C=C2\C(=O)Nc3ccc(C(=O)N[C@@H](c4ccccc4)C(C)C)cc32)c(C)c1NC(=O)CCl` (stereo in doubt) [Compound 9s, (R,Z)-3-((4-(2-chloroacetamido)-3,5-dimethyl-1H-pyrrol-2-yl)methylene)-N-(2-methyl-1-phenylpropyl)-2-oxoindoline-5-carboxamide], the IC50 (PKA) is reported as greater than 250 µM and the IC50 (bovine GRK2) is reported as 23 ± 20 µM.

With `Cc1[nH]c(/C=C2\C(=O)Nc3ccc(C(=O)NC(C)(C)c4ccccc4)cc32)c(C)c1NC(=O)CCl` [Compound 9r, (Z)-3-((4-(2-chloroacetamido)-3,5-dimethyl-1H-pyrrol-2-yl)methylene)-2-oxo-N-(2-phenylpropan-2-yl)indoline-5-carboxamide] the IC50 (bovine GRK2) was 190 ± 70 µM.

For `NCCCNCCCCNCCCNc1cc2nc(-c3ccccc3Cl)[nH]c(=O)c2cc1F` [KR-39038], the “bioavailability (in words)” value [6] is listed as “low bioavailability”, the half-life [6] is listed as less than 60 min and the “effect in a rodent model of hypertrophy (in words)” value [7] is listed as “mild positive effects”.

Reference: article PMC7909074 (Journal of medicinal chemistry, 2021)
